Literature values as cited in PubChem BioAssay AID1259410 (Chemical Carcinogenesis Research Information System (CCRIS), 2018).

Tested on: rodent tumor promotion studies, tumor incidence
Assay: CCRIS tumor promotion studies

O=C1O[C@H]([C@@H](O)CO)C(O)=C1O
outcome (Carcinogen: 1,2-DIMETHYLHYDRAZINE, 540-73-8, Doses [Carcinogen]: 20 MG/KG 1/WK FOR 4 WK, Doses [Promoter]: 0, 5% IN DIET FOR 36 WK (STUDY DURATION: 40 WK), Route [Carcinogen]: SUBCUTANEOUS, Route [Promoter]: ORAL, Species: RAT, Strain/Sex: F344/MALE): colon: tumor | outcome (Carcinogen: BUTYLATED HYDROXYANISOLE, 25013-16-5, Doses [Carcinogen]: 2% IN DIET FOR 1 YR, Doses [Promoter]: 0, 2% IN DIET CONCOMITANTLY WITH CARCINOGEN FOR 1 YR (STUDY DURATION: 1 YR), Route [Carcinogen]: ORAL, Route [Promoter]: ORAL, Species: RAT, Strain/Sex: F344/MALE): forestomach: squamous cell carcinoma | outcome (Carcinogen: METHYLNITROSOUREA, 684-93-5, Doses [Carcinogen]: 20 MG/KG 2/WK FOR 4 WK, Doses [Promoter]: 0, 5% IN DIET BEGINNING POST CARCINOGEN TREATMENT AND CONTINUING FOR 32 WK (STUDY DURATION: 36 WK), Route [Carcinogen]: INTRAPERITONEAL, Route [Promoter]: ORAL, Species: RAT, Strain/Sex: F344/MALE): urinary bladder: papilloma; forestomach: carcinoma | outcome (Carcinogen: N-BUTYL-N-4(HYDROXYBUTYL)NITROSAMINE, 3817-11-6, Doses [Carcinogen]: 0.05% IN DRINKING WATER FOR 2 WK, Doses [Promoter]: 0, 5% IN DIET STARTING POST CARCINOGEN AND CONTINUING FOR 22 WK, LEFT URETER LIGATED 8 D POST CARCINOGEN (STUDY DURATION, Route [Carcinogen]: ORAL, Route [Promoter]: ORAL, Species: RAT, Strain/Sex: F344/MALE): bladder: papilloma | outcome (Carcinogen: N-BUTYL-N-(4-HYDROXYBUTYL)-NITROSAMINE, 3817-11-6, Doses [Carcinogen]: 0.05% IN DRINKING WATER FOR 4 WK, Doses [Promoter]: 0, 5% IN DIET FOR 32 WK BEGINNING POST CARCINOGEN TREATMENT (STUDY DURATION: 36 WK), Route [Carcinogen]: ORAL, Route [Promoter]: ORAL, Species: RAT, Strain/Sex: F344/MALE): urinary bladder: papilloma, carcinoma | outcome (Carcinogen: N-BUTYL-N-(4-HYDROXYBUTYL)-NITROSAMINE, 3817-11-6, Doses [Carcinogen]: 0.05% IN DRINKING WATER FOR 4 WK, Doses [Promoter]: 0, 5% IN DIET FOR 32 WK BEGINNING POST CARCINOGEN TREATMENT (STUDY DURATION: 36 WK), Route [Carcinogen]: ORAL, Route [Promoter]: ORAL, Species: RAT, Strain/Sex: LEW/MALE): urinary bladder: papilloma, carcinoma | outcome (Carcinogen: N-BUTYL-N-(4-HYDROXYBUTYL)NITROSAMINE [3817-11-6], Doses [Carcinogen]: 0.05% IN DRINKING WATER FOR 4 WK (STUDY DURATION: 40 WK), Doses [Promoter]: 2.5% IN DIET FOR 18 WK BEGINNING IMMEDIATELY POST LAST CARCINOGEN DOSE (STUDY DURATION: 40 WK), Route [Carcinogen]: ORAL, Route [Promoter]: ORAL, Species: RAT, Strain/Sex: F344/MALE): urinary bladder: tumor | outcome (Carcinogen: N-BUTYL-N-(4-HYDROXYBUTYL)NITROSAMINE, 3817-11-6, Doses [Carcinogen]: 0.05% IN DRINKING WATER FOR 2 WK, Doses [Promoter]: 0, 5% IN DIET FOR 32 WK BEGINNING POST CARCINOGEN TREATMENT (STUDY DURATION: 34 WK), Route [Carcinogen]: ORAL, Route [Promoter]: ORAL, Species: RAT, Strain/Sex: F344/MALE): urinary bladder: papilloma, carcinoma | outcome (Carcinogen: N-BUTYL-N-(4-HYDROXYBUTYL)NITROSAMINE, 3817-11-6, Doses [Carcinogen]: 0.05% IN DRINKING WATER FOR 4 WK, Doses [Promoter]: 0, 5% IN BASAL DIET CONTAINING 1.5% SODIUM BICARBONATE FOR 32 WK (STUDY DURATION: 36 WK), Route [Carcinogen]: ORAL, Route [Promoter]: ORAL, Species: RAT, Strain/Sex: F344/MALE): urinary bladder: carcinoma | outcome (Carcinogen: N-BUTYL-N-(4-HYDROXYBUTYL)NITROSAMINE, 3817-11-6, Doses [Carcinogen]: 0.05% IN DRINKING WATER FOR 4 WK, Doses [Promoter]: 0, 5% IN DIET FOR 32 WK (STUDY DURATION: 36 WK), Route [Carcinogen]: ORAL, Route [Promoter]: ORAL, Species: RAT, Strain/Sex: F344/MALE): urinary bladder: papilloma, carcinoma | outcome (Carcinogen: N-BUTYL-N-(4-HYDROXYBUTYL)NITROSAMINE, 3817-11-6, Doses [Carcinogen]: 0.05% IN DRINKING WATER FOR 4 WK, Doses [Promoter]: 0, 5% IN DIET FOR 32 WK BEGINNING POST CARCINOGEN TREATMENT (STUDY DURATION: 36 WK), Route [Carcinogen]: ORAL, Route [Promoter]: ORAL, Species: RATS, Strain/Sex: F344/SHI/MALE): bladder: papilloma, carcinoma | outcome (Carcinogen: N-BUTYL-N-(4-HYDROXYBUTYL)NITROSAMINE, 3817-11-6, Doses [Carcinogen]: 0.05% IN DRINKING WATER FOR 4 WK, Doses [Promoter]: 0, 5% IN DIET FOR 32 WK POST CARCINOGEN DOSE (STUDY DURATION: 36 WK), Route [Carcinogen]: ORAL, Route [Promoter]: ORAL, Species: RAT, Strain/Sex: F344/MALE): bladder: carcinoma or papilloma | outcome (Carcinogen: N-METHYL-N-NITROSOUREA, 684-93-5, Doses [Carcinogen]: 20 MG/KG 2/WK FOR 4 WK, Doses [Promoter]: 0, 5% IN DIET FOR 32 WK (STUDY DURATION: 32 WK), Route [Carcinogen]: INTRAPERITONEAL, Route [Promoter]: ORAL, Species: RAT, Strain/Sex: F344/MALE): forestomach: papilloma, carcinoma; urinary bladder: papilloma, carcinoma | outcome (Carcinogen: N-[4-(5-NITRO-2-FURYL)-2-THIAZOLYL]FORMAMIDE, 24554-26-5, Doses [Carcinogen]: 0.2% IN DIET FOR 6 WK, Doses [Promoter]: 0, 5% IN PROLAB DIET FOR 72 WK BEGINNING POST CARCINOGEN TREATMENT (STUDY DURATION: 78 WK), Route [Carcinogen]: ORAL, Route [Promoter]: ORAL, Species: RAT, Strain/Sex: F344/MALE): urinary bladder: carcinoma, carcinoma or papilloma | outcome (Carcinogen: N-bis(2-hydroxypropyl)nitrosamine (DHPN) (53609-64-6), Doses [Carcinogen]: 0.1% (w/v) in drinking water for 3 wk, then surgery for acid reflux esophagitis, study duration 34 wk, Doses [Promoter]: 0 (basal diet), 1% ascorbic acid, 1% ascorbic acid with 0.2% sodium nitrite, study duration 32 wk after first promoter d, Doses [Promoter]: 0 (basal diet), 1% ascorbic acid, 1% ascorbic acid with 0.2% sodium nitrite, study duration 32 wk after first promoter d, Route [Carcinogen]: Oral, Route [Promoter]: Oral, Species: Rat, Strain/Sex: F344/Male (24/group)): esophagus (p1-p4): papilloma; significant only for combined treatment in p4 segm | outcome (Carcinogen: N-methyl-N'-nitro-N-nitrosoguanidine (70-25-7), Doses [Carcinogen]: 0.01% in drinking water for 10 wk for initiation of glandular stomach tumors, 100 mg/kg intragastrically after 16 hr st, Doses [Promoter]: 0.1% or 1.0% in the diet from wk 11 to end of study in combination with 0.05%, 0.1%, or 0.2% sodium nitrite in drinki, Route [Carcinogen]: Oral and Intragastric, Route [Promoter]: Oral, Species: Rat, Strain/Sex: F344/Male (15/15)/(14/15)(15/15)(15/15)(15/15)(15/15)(14/15)): forestomach: squamous cell carcinoma, papilloma increased in incidence and/or se

N[C@@H](Cc1cc(I)c(Oc2cc(I)c(O)c(I)c2)c(I)c1)C(=O)O
outcome (Carcinogen: AZOXYMETHANE, 25843-45-2, Doses [Carcinogen]: 7.4 MG/KG IN 0.9% SALINE 1/WK FOR 10 WK, Doses [Promoter]: 0, 0.2 UG/KG IN OLIVE OIL 1/2 D FOR 35 WK (STUDY DURATION: 35 WK), Route [Carcinogen]: SUBCUTANEOUS, Route [Promoter]: SUBCUTANEOUS, Species: RAT, Strain/Sex: WISTAR/MALE): colon: tumor | outcome (Carcinogen: N-METHYL-N'-NITRO-N-NITROSOGUANIDINE, 70-25-7, Doses [Carcinogen]: 25 UG/ML IN DRINKING WATER FOR 25 WK, Doses [Promoter]: 0, 0.2 UG/KG BW IN OLIVE OIL 1/2 D BEGINNING POST CARCINOGEN TREATMENT AND CONTINUING FOR 26 WK (STUDY DURATION: 52 WK), Route [Carcinogen]: ORAL, Route [Promoter]: SUBCUTANEOUS, Species: RAT, Strain/Sex: WISTAR/MALE): stomach: adenocarcinoma

CCC(C(=O)NC(N)=O)c1ccccc1 (centres undefined)
outcome (Carcinogen: N-NITROSODIETHYLAMINE, 55-18-5, Doses [Carcinogen]: 75 MG IN STERILE SALINE ONCE, Doses [Promoter]: 0, 444 PPM IN DIET BEGINNING 2 WK POST CARCINOGEN DOSE AND CONTINUING FOR DURATION OF STUDY (STUDY DURATION: 78 WK), Route [Carcinogen]: INTRAPERITONEAL, Route [Promoter]: ORAL, Species: RAT, Strain/Sex: F344/MALE): liver: hepatocellular adenoma

CC1=CC[C@H]2C[C@@H]1C2(C)C
outcome (Carcinogen: 7,12-DIMETHYLBENZ(A)ANTHRACENE, Doses [Carcinogen]: TOP, Route [Carcinogen]: DERMAL, Route [Promoter]: DERMAL, Species: MOUSE): integumentary system (skin)

CNC[C@H](O)c1cccc(O)c1
outcome (Carcinogen: N-METHYL-N'-NITRO-N-NITROSOGUANIDINE, 70-25-7, Doses [Carcinogen]: 25 UG/ML IN DRINKING WATER FOR 20 WK, Doses [Promoter]: 0, 6 MG/KG BW IN OLIVE OIL 1/2 D BEGINNING POST CARCINOGEN TREATMENT (STUDY DURATION: 52 WK), Route [Carcinogen]: ORAL, Route [Promoter]: SUBCUTANEOUS, Species: RAT, Strain/Sex: WISTAR/MALE): stomach: adenocarcinoma | outcome (Carcinogen: N-METHYL-N'-NITRO-N-NITROSOGUANIDINE, 70-25-7, Doses [Carcinogen]: 25 UG/ML IN DRINKING WATER FOR 25 WK, Doses [Promoter]: 0, 6 MG/KG BW 1/2 D FOR 27 WK BEGINNING POST CARCINOGEN TREATMENT (STUDY DURATION: 52 WK), Route [Carcinogen]: ORAL, Route [Promoter]: SUBCUTANEOUS, Species: RAT, Strain/Sex: WISTAR/MALE): glandular stomach: adenocarcinoma

C/C=C(\C(=C/C)c1ccc(O)cc1)c1ccc(O)cc1
outcome (Carcinogen: IRRADIATION, Doses [Carcinogen]: 260 CGY GAMMA RAYS AT DAY 20 OF PREGNANCY, Doses [Promoter]: 0, 0.376 UG/D RELEASED FROM PELLET IMPLANTED AFTER NURSING DISCONTINUED, PELLET REPLACED EVERY 8 WK (STUDY DURATION: 1 Y, Route [Carcinogen]: DERMAL, Route [Promoter]: IMPLANT, Species: RAT, Strain/Sex: WISTAR/FEMALE): mammary gland: tumor

Oc1cccc(Cl)c1
outcome (Carcinogen: 7,12-DIMETHYLBENZ(A)ANTHRACENE, Doses [Carcinogen]: TOP, Route [Carcinogen]: DERMAL, Route [Promoter]: DERMAL, Species: MOUSE, Strain/Sex: FEMALE): integumentary system (skin)
